# Laboratory results published in paper PMC3665828 (PLoS ONE, 2013).
# Entries after “also recorded” stand apart in the source; their conditions may differ. Where two headings read alike, the source gives them in different places. Starred links: 1 amine or outer side, 2 acyl side, 3 side chain; linkers in the order of their positions; H or OH if unused. Residues, ends and D or L forms follow the SMILES beside them. No end group written: not given here. CO = O=C([*:1])[*:2]
# Legend:
# [1] = system: angiotensin-generating proteases of immobilized human plasma proteins; experiment: Incubation of immobilized human plasma proteins with ANG-1-10 in the presence of protease inhibitors (SRM-MS); type: biochemical
# Procedure: The control was incubated with immobilized plasma proteins in the absence of inhibitors. The incubation with immobilized plasma proteins was carried out as described in “Incubation of immobilized plasma proteins”. The incubation was started by addition of ANG-1-10 to a final concentration of 10^−5 M to the immobilized plasma proteins.
# The reaction products were analyzed by SRM-MS after 6 h (Figure S6).
# Supplementary file pone.0064027.s006.tif: Figure S6 Processing of ANG-1-10 by immobilized human plasma proteases in the presence and abscence of protease inhibitors. […] Right y-axis: AUC of ANG-2-10 and ANG-3-10 after incubation in presence of EDTA. (TIF) Click here for additional data file.
# [2] = target: recombinant human aminopeptidase N (APN) (Homo sapiens, UniProt P15144); experiment: Incubation of angiotensin peptides with recombinant aminopeptidase N (MALDI-MS); conditions: for Cleavage products generated from the substrate by recombinant aminopeptidase N (APN): substrate 10^−5 M in HPLC-grade water, 0.25 µg recombinant human APN per 100 µl, reaction products detected by MALDI-MS
# Sequence of recombinant human aminopeptidase N (APN) (Homo sapiens, UniProt P15144) (P15144 whole entry): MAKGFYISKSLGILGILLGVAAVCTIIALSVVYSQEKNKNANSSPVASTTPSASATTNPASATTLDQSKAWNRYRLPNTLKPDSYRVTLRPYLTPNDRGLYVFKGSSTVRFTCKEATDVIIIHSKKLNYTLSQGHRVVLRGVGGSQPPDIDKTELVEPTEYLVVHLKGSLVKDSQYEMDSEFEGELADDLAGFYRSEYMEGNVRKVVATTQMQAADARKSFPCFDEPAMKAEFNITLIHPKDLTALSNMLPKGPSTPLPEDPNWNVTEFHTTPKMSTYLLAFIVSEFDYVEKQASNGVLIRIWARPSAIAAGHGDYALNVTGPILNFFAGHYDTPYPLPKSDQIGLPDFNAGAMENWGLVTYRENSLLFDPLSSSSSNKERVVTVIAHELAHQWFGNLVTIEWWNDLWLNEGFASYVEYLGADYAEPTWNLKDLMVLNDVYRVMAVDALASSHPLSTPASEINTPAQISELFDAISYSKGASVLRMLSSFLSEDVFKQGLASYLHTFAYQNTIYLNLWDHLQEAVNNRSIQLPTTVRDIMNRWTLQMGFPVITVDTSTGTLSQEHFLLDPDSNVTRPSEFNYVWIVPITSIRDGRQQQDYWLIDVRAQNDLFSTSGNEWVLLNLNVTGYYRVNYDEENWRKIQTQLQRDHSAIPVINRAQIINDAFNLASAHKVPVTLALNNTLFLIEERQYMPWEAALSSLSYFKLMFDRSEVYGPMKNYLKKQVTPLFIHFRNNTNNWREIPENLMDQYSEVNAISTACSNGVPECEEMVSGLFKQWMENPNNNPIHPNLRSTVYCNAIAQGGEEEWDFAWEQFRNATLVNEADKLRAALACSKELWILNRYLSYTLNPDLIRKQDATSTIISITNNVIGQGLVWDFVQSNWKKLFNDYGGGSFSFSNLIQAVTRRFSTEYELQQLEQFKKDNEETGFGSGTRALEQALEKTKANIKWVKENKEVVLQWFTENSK
# Procedure: (§1) At defined incubation times aliquots (10 µl) were taken from the reaction mixtures. Reaction was stopped by addition of formic acid adjusting a final concentration of 0.2% (v/v) formic acid/HPLC-grade water. Samples were analyzed by MALDI-MS (Reflex IV, Bruker) using DHB as matrix.
# APN is a protease that is known to cleave ANG-2-8 between the Arg2-Val3 in vitro [22] and in vivo [23], [24]. Thus it is a potential protease for the generation of ANG-3-10.
# [3] = system: immobilized human plasma proteins; experiment: Incubation of angiotensin peptides with immobilized human plasma proteins; type: in vitro ADME
# Procedure: For incubation experiments human venous citrate blood (ratio 1∶9, blood to sodium citrate 3,13% (Eifelfango)) was obtained by catheterization from the cubital vein of a healthy volunteer (blood pressure: normal, <120/80 mmHg).
# Analysis of the reaction by SRM was performed on a LC-ESI-QQQ-MS system. Exoproteolytic processing of these angiotensin peptides requires the presence of plasma proteases which are able to cognate and cleave the intermediate angiotensin peptides. […] When ANG-5-10 was incubated in presence of human immobilized plasma proteins time the dependent generation of ANG-6-10 was detected. After an incubation period of 8 h nearly no angiotensin peptides were detected in any of the reaction mixtures.
# Dry Sepharosebeads® were swollen in 10 ml 0.1 mM hydrochloric acid/ HPLC (high pressure liquid chromatography)-grade water for 30 min on a rotating shaker. Subsequently they were washed repeatedly with HPLC-grade water (Lichrosolve, Merck). Afterwards Sepharosebeads® were equilibrated by multiple washing steps with protein coupling buffer (100 mM NaHCO3, 500 mM NaCl, pH 8,3). For protein immobilization plasma samples with a volume of 40 µl were mixed with coupling buffer in a ratio of 1:6 and mixed with the prepared Sepharosebeads® followed by incubation for 2h on a rotating shaker (room temperature). As a control heat inactivated plasma (boiled for 5 min) was immobilized. A volume of 40 µl swollen Sepharosebeads® was used per sample. After protein immobilization the Sepharosebeads® were washed three times with HPLC-grade water. Free binding sites of the Sepharosebeads® were saturated by incubation with blocking buffer (100 mM NaHCO3,500 mM NaCl, pH 8,3, 1 M Glycine, pH 8,3) for 2h on a rotating shaker (room temperature).
# [4] = system: non-immobilized human plasma
# Procedure: From this blood sample an aliquot of 10 ml was saved for the incubation experiments. The rest of the blood sample was immediately mixed with protease inhibitor cocktail (including 2 mM AEBSF, 0.3 µM aprotinin, 130 µM bestatin, 1 mM EDTA, 14 µM E-64 and 1 µM leupeptin (Sigma-Aldrich)) in a ratio of 1∶50.
# For incubation of non-immobilized plasma a reaction volume of 200 µl non-immobilized undiluted and diluted plasma (1∶100 in HPLC-grade water) was used per sample. Incubation was started by addition of ANG-1-10 to a final concentration of 10^−5 M. Incubation was carried out at 37°C on a rotating shaker. As a control 200 µl of a 10^−5 M ANG-1-10 solution without plasma was incubated under the same conditions.
# The reaction products derived from the incubation of non-immobilized plasma proteins were desalted by solid phase extraction (Hydophilic lipophilic balance (HLB) µElution plate, Waters). The HLB material was equilibrated by three washing steps with 0.2% formic acid/HPLC-grade water by centrifugation of the plate for 1 min with 500×g. Next, the sample was applied to the HLB material and centrifuged for 2 min with 200×g. The flow-through was discarded and unbound molecules were removed by washing the HLB material 3 times with 0.2% formic acid/HPLC-grade water by centrifugation of the plate for 2 min with 500×g. […]
# [5] = system: immobilized mouse plasma proteins
# Procedure: (§2) Heparinized (10 IU/ml) mouse and rat blood (200 µl) was obtained from the caudal vein. Plasma was isolated from all blood samples by centrifugation (4–16 K, Sigma) 4000×g for 15 min.
# (§3) For the immobilization of plasma proteins CNBr-activated Sepharosebeads® 6MB (GE Healthcare) were used. Protein immobilization was perfomed as described in the product information sheet for CNBr-activated Sepharosebeads® (Sigma Aldrich) except for modifications described in the supporting information part “immobilization of plasma proteins” (Methods S1).
# Incubation of immobilized plasma proteins and the control samples (glycine derivatized Sepharosebeads® without immobilized proteins and heat inactivated immobilized plasma proteins for the incubation with ANG-1-10) was started by addition of the individual angiotensin peptides (final concentration of 10^−5 M, solved in HPLC-grade water, Lichrosolve, Merck) to the beads. Incubation was carried out at 37°C on a rotating shaker. […]
# To investigate the processing of ANG-1-10 by human plasma proteases we used a mass spectrometry based enzyme screening (MES) system [20]. Therefore immobilized murine and human plasma proteins were incubated with ANG-1-10 and the reaction products were analyzed by mass spectrometry. […]
# ANG-1-10 (10^−5 M) was incubated with immobilized mouse plasma proteins. Reaction products were detected by MALDI-MS after 0 h, 3 h, 4 h and 8 h. […]
# [6] = system: immobilized rat plasma proteins
# Procedure: as §2, §3
# Incubation of immobilized plasma proteins and the control samples (glycine derivatized Sepharosebeads® without immobilized proteins and heat inactivated immobilized plasma proteins for the incubation with ANG-1-10) was started by addition of the individual angiotensin peptides (final concentration of 10^−5 M, solved in HPLC-grade water, Lichrosolve, Merck) to the beads. Incubation was carried out at 37°C on a rotating shaker. The final reaction volume of the samples was 30 µl.
# Identification of the reaction products was done by comparison of the m/z values of the peaks in the mass spectra with the theoretical m/z values (Table S2) of possible angiotensin peptide products.
# ANG-1-10 (10^−5 M) was incubated with immobilized rat plasma proteins. Reaction products were detected by MALDI-MS after 0 h, 1 h, 3 h and 8 h.
# [7] = system: recombinant human aminopeptidase N (APN); experiment: 0.25 µg recombinant human aminopeptidase N in 100 µl angiotensin solution; conditions: up to 24 h
# recombinant human ACE-1 = recombinant human ACE-1 (Homo sapiens, UniProt P12821); experiment: Incubation of angiotensin peptides with recombinant ACE-1 (MALDI-MS); conditions: peptide 10^−5 M, 0.25 µg recombinant human ACE-1, MALDI-MS after 8 h
# Sequence of recombinant human ACE-1 (P12821 30-1306): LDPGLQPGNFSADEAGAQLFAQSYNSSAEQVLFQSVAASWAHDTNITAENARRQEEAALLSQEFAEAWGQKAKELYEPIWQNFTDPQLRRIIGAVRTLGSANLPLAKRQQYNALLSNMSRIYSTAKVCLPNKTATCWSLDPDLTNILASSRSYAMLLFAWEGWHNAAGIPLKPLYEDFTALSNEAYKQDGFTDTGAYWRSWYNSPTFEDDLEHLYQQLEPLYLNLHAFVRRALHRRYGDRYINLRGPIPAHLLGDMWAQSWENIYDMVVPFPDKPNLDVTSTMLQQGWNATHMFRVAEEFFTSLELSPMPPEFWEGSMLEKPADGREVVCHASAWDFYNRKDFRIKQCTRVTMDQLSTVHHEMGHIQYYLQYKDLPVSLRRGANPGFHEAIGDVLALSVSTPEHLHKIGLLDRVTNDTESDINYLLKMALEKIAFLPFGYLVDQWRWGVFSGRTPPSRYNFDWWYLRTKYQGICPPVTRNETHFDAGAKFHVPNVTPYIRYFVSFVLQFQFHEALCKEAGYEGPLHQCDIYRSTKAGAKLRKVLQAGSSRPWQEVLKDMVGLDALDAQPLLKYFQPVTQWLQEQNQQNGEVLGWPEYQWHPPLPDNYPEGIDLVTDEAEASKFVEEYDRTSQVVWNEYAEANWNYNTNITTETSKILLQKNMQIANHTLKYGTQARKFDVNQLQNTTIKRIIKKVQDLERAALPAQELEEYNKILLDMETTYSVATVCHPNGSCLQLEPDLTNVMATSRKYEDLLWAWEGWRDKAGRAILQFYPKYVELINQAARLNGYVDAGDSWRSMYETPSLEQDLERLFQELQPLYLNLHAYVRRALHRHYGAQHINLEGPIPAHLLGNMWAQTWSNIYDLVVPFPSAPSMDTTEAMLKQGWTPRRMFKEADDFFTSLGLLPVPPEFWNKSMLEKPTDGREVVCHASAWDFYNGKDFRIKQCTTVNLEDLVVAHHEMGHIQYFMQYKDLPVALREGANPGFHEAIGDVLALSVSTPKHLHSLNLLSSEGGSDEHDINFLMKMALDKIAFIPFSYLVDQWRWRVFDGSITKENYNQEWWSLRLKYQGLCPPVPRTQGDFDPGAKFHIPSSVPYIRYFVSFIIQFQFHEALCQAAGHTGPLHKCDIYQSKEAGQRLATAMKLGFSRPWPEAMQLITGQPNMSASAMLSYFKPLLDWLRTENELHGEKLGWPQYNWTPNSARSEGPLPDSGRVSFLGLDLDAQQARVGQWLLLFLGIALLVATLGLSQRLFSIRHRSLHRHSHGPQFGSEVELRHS
# Procedure: as §1
# It is known that ACE-1 generates ANG-1-8 by removal of the last two C-terminal amino acids (His9-Leu10) of ANG-1-10. […] The reaction products were analyzed by MALDI-MS (Figure S7).
# Supplementary file pone.0064027.s007.tif: Figure S7 Processing of angiotensin peptides by recombinant ACE-1. […] ACE-1 was incubated with A) ANG-1-10, B) ANG-2-10, C) ANG-3-10, D) ANG-4-10, E) ANG-5-10. Reaction products were analyzed by MALDI-MS after an incubation time of 8 h. MALDI-MS-Signals which were assigned as angiotensin peptides are marked by arrows. (TIF) Click here for additional data file.
# [8] = immobilized human plasma proteins (CNBr-activated Sepharosebeads); conditions: 37°C, up to 24 h
# [9] = system: angiotensin converting enzyme-1 (ACE-1); experiment: 0.25 µg recombinant human ACE-1 in 100 µl angiotensin solution; conditions: up to 8 h
# APN = experiment: in vitro and in vivo; conditions: cited from earlier work
# [10] = system: anti ANG-1-10 antibody (rabbit polyclonal); conditions: rabbit polyclonal antibody of the kit; ref Fluorescent EIA Kit, phoenix pharmaceuticals; cited from earlier work
# Procedure: The RP-HPLC plasma peptide fractionations corresponding to the retention times of the synthetic angiotensin peptides were analyzed by an immuno-fluorescence assay that was originally manufactured for the quantification of ANG-1-10.
# rat blood = conditions: cited from earlier work
# [11] = ANG-1-10 10^−5 M, immobilized human plasma proteins, 200 µM AEBSF, 50 µM antipain, 150 µM bestatin, 100 µM EDTA, SRM-MS after 6 h, mean ± SEM, n = 3
# [12] = ANG-1-10 10^−5 M, immobilized human plasma proteins, 200 µM AEBSF, 50 µM antipain, 150 µM bestatin, 10 µM captopril, 100 µM chymostatin, 100 µM EDTA, SRM-MS after 6 h, mean ± SEM, n = 3
# [13] = substrate 10^−5 M, immobilized human plasma proteins, 37°C, SRM-MS (LC-ESI-QQQ-MS) / MALDI-MS
molecule,measurement,setting,value
NCCc1ccc(S(=O)(=O)F)cc1 [AEBSF],Change of ANG-3-10-generating activity in the presence of inhibitor,[1]; [11],inhibited
"CC[C@H](C)[C@H](NC(=O)[C@H](Cc1ccc(O)cc1)NC(=O)[C@@H](NC(=O)[C@H](CCCNC(=N)N)NC(=O)[C@@H](N)CC(=O)O)C(C)C)C(=O)N[C@@H](Cc1cnc[nH]1)C(=O)N1CCC[C@H]1C(=O)N[C@@H](Cc1ccccc1)C(=O)O [ANG-1-8, angiotensin II]",Cleavage products generated from the substrate by recombinant aminopeptidase N (APN),[2],none
CC(C)[C@H](NC(=O)[C@H](CCCNC(=N)N)NC(=O)N[C@@H](Cc1ccccc1)C(=O)O)C(=O)N[C@H](C=O)CCCNC(=N)N [Antipain] ({Phe-CO}-Arg-Val-Arg-aldehyde),Change of ANG-6-10-generating activity in the presence of inhibitor,[1],slightly inhibited
same,Change of ANG-2-10-generating activity in the presence of inhibitor,"[1]; ANG-1-10 10^−5 M, immobilized human plasma proteins, 50 µM antipain, 150 µM bestatin, 100 µM EDTA, SRM-MS after 6 h, mean ± SEM, n = 3",−0.12±0.023
same,Change of ANG-4-10-generating activity in the presence of inhibitor,"[1]; ANG-1-10 10^−5 M, immobilized human plasma proteins, 50 µM antipain, SRM-MS after 6 h, mean ± SEM, n = 3",-0.21±0.05
same,Change of ANG-3-10-generating activity in the presence of inhibitor,[1]; [11],inhibited
CC(C)C[C@H](NC(=O)[C@@H](O)[C@H](N)Cc1ccccc1)C(=O)O [Bestatin],Change of ANG-6-10-generating activity in the presence of inhibitor,[1]; [12],0.76±0.14
same,Change of ANG-3-10-generating activity in the presence of inhibitor,[1]; [11],Higher amounts
C[C@H](CS)C(=O)N1CCC[C@H]1C(=O)O [Captopril],Change of ANG-6-10-generating activity in the presence of inhibitor,[1]; [12],0.98±0.32
CC(C)C[C@H](NC(=O)[C@@H](NC(=O)N[C@@H](Cc1ccccc1)C(=O)O)[C@@H]1CCN=C(N)N1)C(=O)N[C@H](C=O)Cc1ccccc1 [Chymostatin],Change of ANG-6-10-generating activity in the presence of inhibitor,[1],1.30±0.14
O=C(O)CN(CCN(CC(=O)O)CC(=O)O)CC(=O)O [EDTA],Change of ANG-3-10-generating activity in the presence of inhibitor,[1]; [11],3.4±0.8
"DRVYIHPFHL [ANG-1-10, angiotensin I]",Reaction products generated from the substrate by immobilized human plasma proteins,[3],"A-1-9, ANG-1-8, ANG-1-7, ANG-2-10, ANG-3-10, ANG-4-10, ANG-5-10 and ANG-6-10"
same,Reaction products generated from the substrate by non-immobilized human plasma proteins,[4],"A-1-9, ANG-1-8, ANG-1-7, ANG-2-10, ANG-3-10, ANG-4-10, ANG-5-10 and ANG-6-10"
same,"Only reaction products left after 8 h of incubation, mouse plasma",[5],ANG-1-8
same,Reaction products generated from the substrate by immobilized mouse plasma proteins,[5],"ANG-1-8 (m/z 1046.5), ANG-1-7 (m/z 899.5), ANG-2-10 (m/z 1181.7), ANG-3-10 (m/z 1025.6), ANG-4-10 (m/z 926.5), ANG-5-10 (m/z 763.4)"
same,"Only reaction products left after 8 h of incubation, rat plasma",[6],"ANG-1-7, ANG-1-8 and ANG-5-10"
same,Reaction products generated from the substrate by immobilized rat plasma proteins,[6],"ANG-1-8 (m/z 1046.5), ANG-1-7 (m/z 899.5), ANG-2-10 (m/z 1181.7), ANG-3-10 (m/z 1025.6), ANG-4-10 (m/z 926.5), ANG-5-10 (m/z 763.4)"
HPFHL,not cleaved,[7],not further degraded by APN within 24 h
HPFHL [ANG-6-10],Reaction product generated by recombinant ACE-1,recombinant human ACE-1,no cleavage product was observed
same,Stability towards APN,"[2]; within 24 h of incubation with recombinant APN, MALDI-MS",not further degraded
IHPFHL,fragment found,[8],ANG-6-10
same,cleaved bond,[9],F8-His9
same,fragment found,[7],ANG-6-10
IHPFHL [ANG-5-10],Reaction products generated from the substrate by immobilized human plasma proteins,[3]; [13],ANG-6-10
same,Reaction product generated by recombinant ACE-1,recombinant human ACE-1,ANG-5-8
same,Cleavage products generated from the substrate by recombinant aminopeptidase N (APN),[2],HPFHL
RVYIHPF,cleaved bond,APN,Arg2-Val3
"RVYIHPF [ANG-2-8, angiotensin peptide also known as AIII]",Cross reactivity with the anti ANG-1-10 antibody,[10],no cross reactivity
RVYIHPFHL,fragment found,rat blood,ANG-2-8
same,fragment found,[8],"ANG-3-10; also recorded: ANG-4-10; also recorded: ANG-5-10; also recorded: ANG-6-10; also recorded: ANG-2-8, 8 h; also recorded: ANG-3-8, 8 h; also recorded: ANG-4-8, 8 h"
same,cleaved bond,[9],F8-His9
same,fragment found,[7],"ANG-3-10, 1 h; also recorded: ANG-4-10, 1 h; also recorded: ANG-5-10, 4 h; also recorded: ANG-6-10, 8 h"
RVYIHPFHL [ANG-2-10],Further reaction products detected by MALDI-MS after 8 h of incubation,"[3]; substrate 10^−5 M, immobilized human plasma proteins, 37°C, MALDI-MS after 8 h","ANG-2-8 (m/z 931.5), ANG-3-8 (m/z 775.4) and ANG-4-8 (m/z 676.3)"
same,Reaction products generated from the substrate by immobilized human plasma proteins,[3]; [13],"ANG-3-10, ANG-4-10, ANG-5-10 and ANG-6-10"
same,Reaction product generated by recombinant ACE-1,recombinant human ACE-1,ANG-2-8
same,Cleavage products generated from the substrate by recombinant aminopeptidase N (APN),[2],VYIHPFHL; also recorded: YIHPFHL; also recorded: IHPFHL; also recorded: HPFHL
VYIHPFHL,fragment found,[8],ANG-4-10; also recorded: ANG-5-10; also recorded: ANG-6-10
same,cleaved bond,[9],F8-His9
same,fragment found,[7],"ANG-4-10, 1 h; also recorded: ANG-6-10, 1 h"
VYIHPFHL [ANG-3-10],Reaction products generated from the substrate by immobilized human plasma proteins,[3]; [13],"ANG-4-10, ANG-5-10 and ANG-6-10"
same,Reaction product generated by recombinant ACE-1,recombinant human ACE-1,ANG-3-8
same,Cleavage products generated from the substrate by recombinant aminopeptidase N (APN),[2],YIHPFHL; also recorded: HPFHL
YIHPFHL,fragment found,[8],ANG-5-10; also recorded: ANG-6-10
same,cleaved bond,[9],F8-His9
same,fragment found,[7],"ANG-5-10, 1 h; also recorded: ANG-6-10, 1 h"
YIHPFHL [ANG-4-10],Reaction product generated by recombinant ACE-1,recombinant human ACE-1,ANG-4-8
same,Cleavage products generated from the substrate by recombinant aminopeptidase N (APN),[2],IHPFHL; also recorded: HPFHL
